Data reported in ChEMBL document CHEMBL3992492, “Sulfoximines from a Medicinal Chemist's Perspective: Physicochemical and in vitro Parameters Relevant for Drug Discovery” (Eur J Med Chem, 2017).
≈ marks a conversion by molar mass, not a printed value.

How the values were obtained:
physchem [1] = conditions: octanol/water, pH 10
physchem [2] = conditions: acetonitrile/water mixture
Description: Solubility of the compound in acetonitrile/water mixture at 10 mM measured after 24 by HPLC-UV method

in vitro [3] = conditions: human, liver microsomes
Description: Half life in human liver microsomes at 1 uM in presence of NADPH by LC-MS/MS method

physchem [4] = conditions: aqueous
in vitro [5] = conditions: human, liver microsomes; remark: listed apart in the source
[6] = Drug degradation in pH <1 HCl after 7 days by HPLC method
[7] = Dissociation constant, pKb of the compound in aqueous/organic mixture at pH 2 to 12 by potentiometric titration method; assay type: physicochemical; conditions: buffer
in vitro [8] = conditions: PAMPA, pH 7.4
Description: Apparent permeability of the compound at pH 7.4 by PAMPA

[9] = Drug degradation in pH >10 NH3 after 7 days by HPLC method
physchem [10] = conditions: n-octanol/aqueous mixture, pH 2
physchem [11] = conditions: aqueous/organic mixture, pH 2
physchem [12] = conditions: n-octanol/aqueous mixture, pH 7.4
[13] = Apparent partition coefficient, log P of the compound in n-octanol/aqueous mixture at pH 12 by potentiometric titration method; assay type: physicochemical; conditions: octanol/water
[14] = octanol/water, pH 7.4
[15] = Dissociation constant, pKa of the compound; assay type: physicochemical
[16] = Apparent partition coefficient, log P of the compound in n-octanol/aqueous mixture at pH 3 by potentiometric titration method; assay type: physicochemical
[17] = Dissociation constant, pKb of the compound in aqueous phase at pH 2 to 12 by potentiometric titration method; assay type: physicochemical; conditions: buffer

In the case of `N=S1(=Nc2ccc(C(F)(F)F)cc2)CCCCC1`, the logP (physchem [1]) is reported as 1.3, the solubility at 10000 µM (physchem [2]) is reported as 44 µg/mL (≈ 159 µM) and the half-life at 1 µM (in vitro [3]) is reported as 110 min. It also gave a solubility thermodynamic (physchem [4]) of 500 µg/mL (≈ 1810 µM), a hepatic extraction ratio at 1 µM (in vitro [5]) of 0.25 and a Drug degradation [6] of 13%. For the same compound, the pKb [7] was 4, the Papp (in vitro [8]) was 7.3 ×10⁻⁶ cm/s and the Drug degradation [9] was < 10%.
With `CS(=O)(=O)NC(=O)Nc1ccc(C(F)(F)F)cc1` the solubility at 10000 µM (physchem [2]) was 55 µg/mL (≈ 195 µM), the half-life at 1 µM (in vitro [3]) was > 130 min and the solubility thermodynamic (physchem [4]) was 11100 µg/mL (≈ 39300 µM). The hepatic extraction ratio at 1 µM (in vitro [5]) was < 0.23, the logD (physchem [10]) was 1.9 and the pKa (physchem [11]) was 4.2. The logD (physchem [12]) was -0.3 and the Papp (in vitro [8]) was 0.04 ×10⁻⁶ cm/s.
Work on `CNS(=N)(=O)c1ccc(C(F)(F)F)cc1` (configuration not stated) yielded a logP [13] of 0.9, a logD [14] of 0.9 and a logP (physchem [1]) of -0.5. The half-life at 1 µM (in vitro [3]) was 47 min, the solubility thermodynamic (physchem [4]) was 6900 µg/mL (≈ 29000 µM) and the hepatic extraction ratio at 1 µM (in vitro [5]) was 0.45. For the same compound, the Drug degradation [6] was 10%, the pKb [7] was 2.4 and the Papp (in vitro [8]) was 5.7 ×10⁻⁶ cm/s. For the same compound, the Drug degradation [9] was < 10%.
With `CS(C)(=O)=N[C@H]1CC[C@@H](C(F)(F)F)CC1` the logP [13] was 2.4, the logD [14] was 2.4 and the half-life at 1 µM (in vitro [3]) was > 130 min. For the same compound, the solubility thermodynamic (physchem [4]) was 300 µg/mL (≈ 1230 µM), the hepatic extraction ratio at 1 µM (in vitro [5]) was < 0.23 and the pKb [7] was 4.2. It also gave a Papp (in vitro [8]) of 7.8 ×10⁻⁶ cm/s.
In the case of `CS(=N)(=O)c1ccc(C(F)(F)F)cc1` (configuration not stated), the logP [13] is reported as 2, the logD [14] is reported as 2 and the solubility at 10000 µM (physchem [2]) is reported as > 50 µg/mL. For the same compound, the half-life at 1 µM (in vitro [3]) was > 130 min, the solubility thermodynamic (physchem [4]) was 9100 µg/mL (≈ 40800 µM) and the hepatic extraction ratio at 1 µM (in vitro [5]) was < 0.23. It also gave a pKb [7] of 2.5 and a Papp (in vitro [8]) of 6.9 ×10⁻⁶ cm/s.
With `CS(=N)(=O)c1ccccc1` (configuration not stated) the pKa [15] was 2.7.
In the case of `CNS(=O)(=O)c1ccc(C(F)(F)F)cc1`, the solubility at 10000 µM (physchem [2]) is reported as > 49 µg/mL, the half-life at 1 µM (in vitro [3]) is reported as > 130 min and the solubility thermodynamic (physchem [4]) is reported as 900 µg/mL (≈ 3760 µM). For the same compound, the hepatic extraction ratio at 1 µM (in vitro [5]) was < 0.23, the logD (physchem [10]) was 2.3 and the pKa (physchem [11]) was 10.7. It also gave a logD (physchem [12]) of 2.3 and a Papp (in vitro [8]) of 6.3 ×10⁻⁶ cm/s.
Compound `CS(C)(=N)=Nc1ccc(C(F)(F)F)cc1` has a logP [13] of 1.8, a logD [14] of 1.8 and a logP (physchem [1]) of -0.5. For the same compound, the solubility at 10000 µM (physchem [2]) was > 51 µg/mL, the half-life at 1 µM (in vitro [3]) was > 130 min and the solubility thermodynamic (physchem [4]) was 8400 µg/mL (≈ 35600 µM). The hepatic extraction ratio at 1 µM (in vitro [5]) was < 0.23, the pKb [7] was 4 and the Papp (in vitro [8]) was 5.6 ×10⁻⁶ cm/s.
For `CS(=O)(=O)Nc1ccc(C(F)(F)F)cc1`, the solubility at 10000 µM (physchem [2]) was 47 µg/mL (≈ 196 µM), the half-life at 1 µM (in vitro [3]) was > 130 min and the solubility thermodynamic (physchem [4]) was 600 µg/mL (≈ 2510 µM). The hepatic extraction ratio at 1 µM (in vitro [5]) was < 0.23, the pKa (physchem [11]) was 8 and the logD (physchem [12]) was 1.9. The Papp (in vitro [8]) was 5.1 ×10⁻⁶ cm/s and the logD [16] was 2.
For `NS(=O)(=O)c1ccc(C(F)(F)F)cc1`, the solubility at 10000 µM (physchem [2]) was > 48 µg/mL, the half-life at 1 µM (in vitro [3]) was > 130 min and the solubility thermodynamic (physchem [4]) was 800 µg/mL (≈ 3550 µM). For the same compound, the hepatic extraction ratio at 1 µM (in vitro [5]) was < 0.23, the logD (physchem [10]) was 1.4 and the pKa (physchem [11]) was 9.4. The logD (physchem [12]) was 1.4 and the Papp (in vitro [8]) was 4.1 ×10⁻⁶ cm/s.
With `O=S1(c2ccc(C(F)(F)F)cc2)=NCCCC1` (configuration not stated) the logP (physchem [1]) was 0.2, the solubility at 10000 µM (physchem [2]) was > 59 µg/mL and the half-life at 1 µM (in vitro [3]) was > 130 min. For the same compound, the solubility thermodynamic (physchem [4]) was 4700 µg/mL (≈ 17900 µM), the hepatic extraction ratio at 1 µM (in vitro [5]) was < 0.23 and the Drug degradation [6] was < 10%. It also gave a pKb [7] of 3.8, a Papp (in vitro [8]) of 9.2 ×10⁻⁶ cm/s and a Drug degradation [9] of 34%.
With `CS(=N)(=O)c1ccc(Cl)cc1` (configuration not stated) the pKa [15] was 2.3.
With `CS(=O)(=O)NC(=O)c1ccc(C(F)(F)F)cc1` the solubility at 10000 µM (physchem [2]) was > 62 µg/mL, the half-life at 1 µM (in vitro [3]) was > 130 min and the solubility thermodynamic (physchem [4]) was > 20000 µg/mL. For the same compound, the hepatic extraction ratio at 1 µM (in vitro [5]) was < 0.23, the logD (physchem [10]) was 1.7 and the pKa (physchem [11]) was 3.2. The logD (physchem [12]) was -1 and the Papp (in vitro [8]) was 0.01 ×10⁻⁶ cm/s.
For `O=S1(=N[C@H]2CC[C@@H](C(F)(F)F)CC2)CCCCC1`, the logP [13] was 3.5, the logD [14] was 3.5 and the half-life at 1 µM (in vitro [3]) was 52 min. The solubility thermodynamic (physchem [4]) was < 50 µg/mL, the hepatic extraction ratio at 1 µM (in vitro [5]) was 0.43 and the pKb [7] was 5. For the same compound, the Papp (in vitro [8]) was 10 ×10⁻⁶ cm/s.
Compound `O=S1(=O)CCNCC1` has a pKb [17] of 5.4.
